Measured values: PubChem BioAssay AID1963432 (Molecular Pharmacology Branch, DTP, NCI, 2024)

Tested on: SYO-1 complex spheroid growth, percent test/control
Assay: Anticancer human tumor SYO-1 cell line growth inhibition [Asc];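 also: compound exposure lasted 7 days after spheroids grew 3 days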;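 as to viability, T/C: 100% = DMSO vehicle control viability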
Conditions: for IC50: curve of first compound; for viability, T/C: stronger effect = lower value
How it was run: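 Complex spheroids combining tumor cells with HUVEC endothelial cells and human MSCs, at 37 degrees C, 5% CO2; agents tested alone or combined, half-log dilutions from at or near clinical Cmax, or 10 microM if Cmax unknown.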

**Q.** Which IC50 (second compound 0.00949 µM) does the source give for Cc1nc(N2CCC3(CC2)COC(C)C3N)c(CO)nc1Sc1ccnc(N)c1Cl (configuration not stated) + CCN1C(C(=O)NC23CCC(C(=O)O)(CC2)CC3)C(c2cccc(Cl)c2F)C2(C(=O)Nc3cc(Cl)ccc32)C12CCCCC2 here?
**A.** Its IC50 is greater than 3000 nM.

**Q.** And the IC50 (second compound 0.03 µM)?
**A.** Its IC50 is greater than 3000 nM.

**Q.** And the IC50 (second compound 0.0949 µM)?
**A.** The IC50 was greater than 3000 nM.

**Q.** What about the IC50 (second compound 0.3 µM) of the same molecule?
**A.** Its IC50 is less than 9.49 nM.

**Q.** What about the IC50 (second compound 0.949 µM) of the same molecule?
**A.** Its IC50 is less than 9.49 nM.

**Q.** What about the IC50 (second compound 3 µM) of the same molecule?
**A.** The IC50 was less than 9.49 nM.

**Q.** What about the viability, T/C (second compound 0.00949 µM, first compound 0.00949 µM) of the same molecule?
**A.** Its viability, T/C is 111%.

**Q.** What about the viability, T/C (second compound 0.00949 µM, first compound 0.03 µM) of the same molecule?
**A.** Its viability, T/C is 103%.

**Q.** What about the viability, T/C (second compound 0.00949 µM, first compound 0.0949 µM) of the same molecule?
**A.** The viability, T/C was 112%.

**Q.** What about the viability, T/C (second compound 0.00949 µM, first compound 0.3 µM) of the same molecule?
**A.** Its viability, T/C is 109%.

**Q.** What about the viability, T/C (second compound 0.00949 µM, first compound 0.949 µM) of the same molecule?
**A.** The viability, T/C was 116%.

**Q.** What about the viability, T/C (second compound 0.00949 µM, first compound 3 µM) of the same molecule?
**A.** Its viability, T/C is 114%.

**Q.** What about the viability, T/C (second compound 0.03 µM, first compound 0.00949 µM) of the same molecule?
**A.** Its viability, T/C is 111%.

**Q.** And the viability, T/C (second compound 0.03 µM, first compound 0.03 µM)?
**A.** Its viability, T/C is 103%.

**Q.** What about the viability, T/C (second compound 0.03 µM, first compound 0.0949 µM) of the same molecule?
**A.** The viability, T/C was 108%.

**Q.** What about the viability, T/C (second compound 0.03 µM, first compound 0.3 µM) of the same molecule?
**A.** The viability, T/C was 99.7%.

**Q.** What about the viability, T/C (second compound 0.03 µM, first compound 0.949 µM) of the same molecule?
**A.** The viability, T/C was 117%.

**Q.** What about the viability, T/C (second compound 0.03 µM, first compound 3 µM) of the same molecule?
**A.** Its viability, T/C is 117%.

**Q.** And the viability, T/C (second compound 0.0949 µM, first compound 0.00949 µM)?
**A.** The viability, T/C was 82.8%.

**Q.** What about the viability, T/C (second compound 0.0949 µM, first compound 0.03 µM) of the same molecule?
**A.** The viability, T/C was 81.1%.

**Q.** And the viability, T/C (second compound 0.0949 µM, first compound 0.0949 µM)?
**A.** The viability, T/C was 86.8%.

**Q.** What about the viability, T/C (second compound 0.0949 µM, first compound 0.3 µM) of the same molecule?
**A.** Its viability, T/C is 91.2%.

**Q.** And the viability, T/C (second compound 0.0949 µM, first compound 0.949 µM)?
**A.** The viability, T/C was 96.9%.

**Q.** What about the viability, T/C (second compound 0.0949 µM, first compound 3 µM) of the same molecule?
**A.** The viability, T/C was 83.3%.

**Q.** And the viability, T/C (second compound 0.3 µM, first compound 0.00949 µM)?
**A.** The viability, T/C was 24.3%.

**Q.** What about the viability, T/C (second compound 0.3 µM, first compound 0.03 µM) of the same molecule?
**A.** The viability, T/C was 19.9%.

**Q.** What about the viability, T/C (second compound 0.3 µM, first compound 0.0949 µM) of the same molecule?
**A.** Its viability, T/C is 23.2%.

**Q.** What about the viability, T/C (second compound 0.3 µM, first compound 0.3 µM) of the same molecule?
**A.** Its viability, T/C is 17.4%.

**Q.** And the viability, T/C (second compound 0.3 µM, first compound 0.949 µM)?
**A.** Its viability, T/C is 17.4%.

**Q.** And the viability, T/C (second compound 0.3 µM, first compound 3 µM)?
**A.** The viability, T/C was 10.9%.

**Q.** What about the viability, T/C (second compound 0.949 µM, first compound 0.00949 µM) of the same molecule?
**A.** The viability, T/C was 3.59%.

**Q.** And the viability, T/C (second compound 0.949 µM, first compound 0.03 µM)?
**A.** Its viability, T/C is 2.68%.

**Q.** What about the viability, T/C (second compound 0.949 µM, first compound 0.0949 µM) of the same molecule?
**A.** Its viability, T/C is 3.26%.

**Q.** And the viability, T/C (second compound 0.949 µM, first compound 0.3 µM)?
**A.** Its viability, T/C is 1.67%.

**Q.** What about the viability, T/C (second compound 0.949 µM, first compound 0.949 µM) of the same molecule?
**A.** The viability, T/C was 1.74%.

**Q.** What about the viability, T/C (second compound 0.949 µM, first compound 3 µM) of the same molecule?
**A.** Its viability, T/C is 0.54%.

**Q.** What about the viability, T/C (second compound 3 µM, first compound 0.00949 µM) of the same molecule?
**A.** Its viability, T/C is 0.99%.

**Q.** And the viability, T/C (second compound 3 µM, first compound 0.03 µM)?
**A.** Its viability, T/C is 1.08%.

**Q.** And the viability, T/C (second compound 3 µM, first compound 0.0949 µM)?
**A.** The viability, T/C was 0.94%.

**Q.** And the viability, T/C (second compound 3 µM, first compound 0.3 µM)?
**A.** The viability, T/C was 2.3%.

**Q.** And the viability, T/C (second compound 3 µM, first compound 0.949 µM)?
**A.** Its viability, T/C is 0.69%.

**Q.** What about the viability, T/C (second compound 3 µM, first compound 3 µM) of the same molecule?
**A.** The viability, T/C was 0.39%.
